PMC6792352, “Limited Chemical Structural Diversity Found to Modulate Thyroid Hormone Receptor in the Tox21 Chemical Library” (Environmental Health Perspectives, 2019)
Where a name gives a salt, the structure may show the parent alone.

Experiment: in vitro
Settings: rat, gh3-tre-luc cells

SMILES	CC50 at 24 h (AC50 (uM) modified / 1000)	other results
COC(=O)/C=C\C(=O)O [2-Butenedioic acid (2Z)-, monomethyl ester]	> 90 µM	–
COC(=O)CC[C@H](N)C(=O)O [(5)-Methyl L-glutamate]	> 50 µM	–
O=C(Cc1ccccc1)OCc1ccccc1 [Benzyl phenylacetate]	–	CC50 at 24 h (AC50 (uM) modified / 1000, Tox21_110001=Tox21_200685, viability, 1 nM T3 present, 24 h): > 90 µM
CCn1cc[n+](C)c1 [1-Ethyl-3-methylimidazolium thiocyanate]	> 90 µM	–
C=C(C)C(N)=O [Methacrylamide]	> 90 µM	–
C[C@@H]1CC[C@H]2[C@@H](C)C(=O)O[C@@H]3O[C@@]4(C)CC[C@@H]1[C@]32OO4 [Artemisinin]	4.4 µM	–
CCCCCCCC/C=C\CCCCCCCC(=O)OC [Methyl (9Z)-octadec-9-enoate]	> 90 µM	–
CO[C@@H]1COCC[C@@H]1N[C@@H]1CC[C@@](C(=O)N2CCc3ncc(C(F)(F)F)cc3C2)(C(C)C)C1 [MK-812]	> 90 µM	–
CCCN1CCC[C@@H]2Cc3nc(N)ncc3C[C@H]21 [Quinelorane]	> 50 µM	–
CCOC(=O)C1=C(C)NC(C)=C(C(=O)OC)C1c1cccc(Cl)c1Cl (centres unmarked) [Felodipine]	13.5 µM	–
Cc1nc(-c2ccccn2)ncc1C(=O)Nn1cc(C)c2cc(F)ccc21 [SAR102608]	> 90 µM	–
C=C(C)[C@H]1CC=C(C)C(=O)C1 [d-Carvone]	> 90 µM	–
CC1(S(=O)(=O)O)CC(=O)c2ccccc2C1=O (centres unmarked) [Menadione sodium bisulfite]	12.2 µM	–
NC(=O)[C@H]1O[C@@H](O)[C@H](O)[C@@H](O)[C@@H]1O [Glucuronamide]	> 50 µM	–
CC1(C)N=C(N)N=C(N)N1c1ccc(Cl)cc1 [Cycloguanil hydrochloride]	> 50 µM	–
OC[C@@H](O)[C@H](O)[C@H](O)[C@@H](O)CO [D-Galactitol]	> 50 µM	–
CC(=O)NS(=O)(=O)c1ccc(N)cc1 [Sulfacetamide]	> 90 µM	–
CC(C)Cc1ccc([C@@H](C)C(=O)NS(C)(=O)=O)cc1 [Reparixin]	> 50 µM	–
NCCN [Ethylenediamine]	> 90 µM	–
NCc1cccc(C2CCN(C(=O)c3ccc(C#Cc4ccccc4F)o3)CC2)c1 [AVE5638]	6.44 µM	–
C=CCNCC=C [Diallylamine]	> 90 µM	–

SMILES	CC50 at 24 h (AC50 (uM) modified / 1000)	other results
CCCCCCC=O [Heptanal]	> 90 µM	–
CCCCCCCCCCCCCOS(=O)(=O)O [Sodium tridecyl sulfate]	> 90 µM	–
CC(C)(CO)CO [2,2-Dimethylpropane-1,3-diol]	> 90 µM	–
CCCCCCCCCOC(=O)c1ccc(O)cc1 [Nonylparaben]	21.8 µM	–
CCCCCCCCCCCCCCCC(=O)OC[C@@H](O)[C@H]1OC[C@H](O)[C@H]1O [Sorbitan monohexadecanoate]	> 50 µM	–
O=c1[nH]c(=O)c2ccccc2o1 [Carsalam]	> 50 µM	–
CCOCCOCC [Ethylene glycol diethyl ether]	> 100 µM	–
CCN1CCC[C@H]1CNC(=O)c1c(OC)ccc(Br)c1OC [Remoxipride]	> 50 µM	–
CCN(CC)c1ccc(C(=C2C=CC(=[N+](CC)CC)C=C2)c2ccc(S(=O)(=O)O)cc2S(=O)(=O)[O-])cc1 [Sulfan blue]	> 90 µM	–
C=CCC1=C(C)[C@@H](OC(=O)[C@@H]2[C@@H](C=C(C)C)C2(C)C)CC1=O [S-Bioallethrin]	32.6 µM	–
N=C(N)c1ccc2cc(OC(=O)c3ccc(N=C(N)N)cc3)ccc2c1 [Nafamostat mesylate]	> 50 µM	–
OC[C@@H](O)[C@H]1O[C@@H]2O[C@H](C(Cl)(Cl)Cl)O[C@@H]2[C@H]1O [Chloralose]	–	CC50 at 24 h (AC50 (uM) modified / 1000, Tox21_110001=Tox21_111708, viability, 1 nM T3 present, 24 h): > 50 µM; CC50 at 24 h (AC50 (uM) modified / 1000, Tox21_110001=Tox21_201447, viability, 1 nM T3 present, 24 h): > 90 µM
CSCC[C@H](NC(=O)[C@H](Cc1ccc(OS(=O)(=O)O)cc1)NC(=O)[C@@H](N)CC(=O)O)C(=O)NCC(=O)N[C@@H](Cc1c[nH]c2ccccc12)C(=O)N[C@@H](CCSC)C(=O)N[C@@H](CC(=O)O)C(=O)N[C@@H](Cc1ccccc1)C(N)=O [Sincalide]	> 50 µM	–
CCOC(=O)C1(c2ccccc2)CCN(CCC(C#N)(c2ccccc2)c2ccccc2)CC1 [Diphenoxylate hydrochloride]	–	CC50 at 24 h (AC50 (uM) modified / 1000, Tox21_110001=Tox21_112593, viability, 1 nM T3 present, 24 h): > 50 µM; CC50 at 24 h (AC50 (uM) modified / 1000, Tox21_110001=Tox21_112825, viability, 1 nM T3 present, 24 h): 19.7 µM
O=C(Cn1ccnc1[N+](=O)[O-])NCCO [Etandazole]	> 50 µM	–
O=C(O)c1cc(C(=O)O)cc([N+](=O)[O-])c1 [5-Nitroisophthalic acid]	> 90 µM	–
O=C1NC(=O)C(c2ccccc2)(c2ccccc2)N1 [5,5-Diphenylhydantoin]	> 90 µM	–
CCc1ccc(Br)cc1 [1-Bromo-4-ethylbenzene]	> 90 µM	–
Cc1nnc(NS(=O)(=O)c2ccc(N)cc2)s1 [Sulfamethizole]	> 50 µM	–
CCCCCCCCN(C)C [N,N-Dimethyloctylamine]	> 90 µM	–
Cn1c(-c2ccccc2)cc(-c2ccccc2)[n+]1C [Difenzoquat metilsulfate]	–	CC50 at 24 h (AC50 (uM) modified / 1000, Tox21_110001=Tox21_201486, viability, 1 nM T3 present, 24 h): > 90 µM

SMILES	CC50 at 24 h (AC50 (uM) modified / 1000)	other results
CCCCCCCCCCCCCCCCCCCCCC(=O)Nc1ccn([C@@H]2O[C@H](CO)[C@@H](O)[C@@H]2O)c(=O)n1 [Enocitabine]	> 50 µM	–
OCC(Cl)CCl (centres unmarked) [2,3-Dichloro-1-propanol]	–	CC50 at 24 h (AC50 (uM) modified / 1000, Tox21_110001=Tox21_200342, viability, 1 nM T3 present, 24 h): > 90 µM
C=C(C)C(=O)OC(C)C [Isopropyl methacrylate]	> 90 µM	–
N#Cc1c(Cl)cccc1Cl [Dichlobenil]	> 90 µM	–
CC(=O)OCc1ccco1 [Furfuryl acetate]	> 90 µM	–
O=C[C@H](O)[C@@H](O)[C@H](O)[C@H](O)CO (racemic) [DL-Glucose]	> 50 µM	–
CC(=O)OCC(=O)[C@@]1(OC(C)=O)[C@@H](C)C[C@H]2[C@@H]3C[C@H](F)C4=CC(=O)C=C[C@]4(C)[C@@]3(F)[C@@H](O)C[C@@]21C [Diflorasone diacetate]	> 50 µM	–
Cc1cc(C)cc(OCC2CNC(=O)O2)c1 (centres unmarked) [Metaxalone]	> 50 µM	–
COc1ccc2cc([C@H](C)CO)ccc2c1 [Naproxol]	> 50 µM	–
N[C@H](CC(=O)O)C(=O)O [D-Aspartic acid]	> 50 µM	–
C[Si](Cn1cncn1)(c1ccc(F)cc1)c1ccc(F)cc1 [Flusilazole]	> 90 µM	–
CC(C)(COC(=O)c1ccccc1)COC(=O)c1ccccc1 [Neopentyl glycol dibenzoate]	> 90 µM	–
O=[N+]([O-])c1ccccc1-c1ccccc1 [2-Nitro-1,1'-biphenyl]	> 90 µM	–
O=C1Nc2ccc(Cl)cc2C(c2ccccc2)=NC1O (centres unmarked) [Oxazepam]	> 80 µM	–
O=C1O[C@H](CO)[C@@H](O)[C@H](O)[C@H]1O [Gluconolactone]	> 90 µM	–
CNC(=O)Oc1ccc2c(c1)[C@]1(C)CCN(C)[C@@H]1N2C [Physostigmine]	> 90 µM	–
COc1ccccc1N1CCN(CCCNc2cc(=O)n(C)c(=O)n2C)CC1 [Urapidil]	> 50 µM	–
CN(C)CCC(O)(c1ccccc1)c1ccccc1Cl (centres unmarked) [Chlophedianol]	26 µM	–
Cc1ccc2ccccc2n1 [Quinaldine]	> 90 µM	–
O=C(O)c1cc2cc(Cc3cccnc3)ccc2o1 [Furegrelate sodium]	> 50 µM	–
CN(C)CCOC(c1ccc(Cl)cc1)c1ccccn1 (centres unmarked) [Carbinoxamine maleate]	23 µM	–

SMILES	CC50 at 24 h (AC50 (uM) modified / 1000)	other results
CC(=O)Nc1cccc(O)c1 [3-Acetamidophenol]	> 90 µM	–
CO[Si](CCCNCCN)(OC)OC [N-[3-(Trimethoxysilyl)propyl]ethane-1,2-diamine]	> 90 µM	–
Nc1cc[nH]c(=O)n1 [Cytosine]	> 90 µM	–
COC(C)(C)C [Methyl tert-butyl ether]	> 90 µM	–
CCCCNC(N)=O [N-Butylurea]	> 90 µM	–
CC(=O)Nc1ccc(C)cc1C [N-(2,4-Dimethylphenyl)acetamide]	> 90 µM	–
CCC[C@H](N[C@@H](C)C(=O)N1[C@H](C(=O)O)C[C@@H]2CCCC[C@@H]21)C(=O)OCC [Perindopril]	> 50 µM	–
Cc1ccc(N)cc1Cl [3-Chloro-4-methylaniline]	> 90 µM	–
O=C(c1ccc(O)cc1)c1ccc(O)c(O)c1O [2,3,4,4'-Tetrahydroxybenzophenone]	> 90 µM	–
COc1cc(NC(=O)CC(C)=O)c(OC)cc1Cl [4'-Chloro-2',5'-dimethoxyacetoacetanilide]	> 90 µM	–
C[C@@H]1[C@H]2Cc3ccc(O)cc3[C@]1(C)CCN2C [(-)-Metazocine fumarate (1:1)]	–	CC50 at 24 h (AC50 (uM) modified / 1000, Tox21_110001=Tox21_112855, viability, 1 nM T3 present, 24 h): > 200 µM
O=C(O)c1cc(O)c(O)c(O)c1 [Gallic acid]	90.1 µM	–
Cc1cccc2c1cc1ccc3cccc4ccc2c1c34 [7-Methylbenzo(a)pyrene]	> 90 µM	–
CN1CCC(=C2c3ccccc3CCc3sccc32)CC1 [Pizotyline]	10.6 µM	–
OC[C@@H](O)[C@@H](O[C@@H]1O[C@H](CO)[C@H](O)[C@H](O)[C@H]1O)[C@H](O)[C@@H](O)CO [D-Lactitol monohydrate]	> 90 µM	–
Clc1ccc2[nH]nnc2c1 [5-Chlorobenzotriazole]	> 90 µM	–
CN1CCN(CC(=O)N2c3ccccc3C(=O)Nc3cccnc32)CC1 [Pirenzepine]	> 50 µM	–
C=CC(=O)OCC [Ethyl acrylate]	> 90 µM	–
CCCCCCC(O)CCCCCCCCCCC(=O)OC (centres unmarked) [Methyl 12-hydroxyoctadecanoate]	> 90 µM	–
CCCCCCOc1ccc(O)cc1 [4-(Hexyloxy)phenol]	25.3 µM	–
NC(=O)OCC(COC(N)=O)c1ccccc1 [Felbamate]	> 90 µM	–
